Data published in ChEMBL document CHEMBL3808333, “Design, synthesis and anticonvulsant activity of new hybrid compounds derived from N-phenyl-2-(2,5-dioxopyrrolidin-1-yl)-propanamides and -butanamides” (Bioorg Med Chem, 2016).
Activity calls are given as the source filed them. The calls are words filed in the database; no cut-off is given here.

Legend:
Mus musculus [1] = test: Anticonvulsant activity in albino Swiss mouse assessed as protection against maximal electroshock-induced seizures pretreated for 2 hrs at 100 mg/kg, ip by maximal electroshock seizure test; type: functional, organism-based
Mus musculus [2] = test: Anticonvulsant activity in albino Swiss mouse assessed as reduction in clonic seizures pretreated for 0.5 hrs at 100 mg/kg, ip measured after 30 mins by subcutaneous pentylenetetrazole seizure test; type: functional; parameters: scale not given: the % may be the effect or the level left
Mus musculus [3] = test: Anticonvulsant activity in albino Swiss mouse assessed as reduction in clonic seizures pretreated for 2 hrs at 100 mg/kg, ip measured after 30 mins by subcutaneous pentylenetetrazole seizure test; type: functional, organism-based
Mus musculus [4] = test: Acute neurotoxicity in albino Swiss mouse pretreated for 2 hrs at 100 mg/kg, ip by rotorod test; type: toxicity, organism-based; conditions: in vivo
Mus musculus [5] = test: Anticonvulsant activity in albino Swiss mouse assessed as protection against electrically-induced seizure pretreated for 0.5 hrs at 100 mg/kg, ip by 6Hz psychomotor seizure test; type: functional
[6] = Protective index, ratio of TD50 for acute neurotoxicity in albino Swiss mouse to ED50 for anticonvulsant activity in albino Swiss mouse by 6Hz psychomotor seizure test; type: toxicity, organism-based; conditions: in vivo, read-out: Ratio TD50/ED50
[7] = Protective index, ratio of TD50 for acute neurotoxicity in albino Swiss mouse to ED50 for anticonvulsant activity in albino Swiss mouse by subcutaneous pentylenetetrazole seizure test; type: toxicity, organism-based; conditions: in vivo, read-out: Ratio TD50/ED50
Mus musculus [8] = test: Anticonvulsant activity against albino Swiss mouse seizure model assessed as time to peak effect at 100 mg/kg, ip; type: functional
Mus musculus [9] = test: Acute neurotoxicity in albino Swiss mouse pretreated for 0.5 hrs at 100 mg/kg, ip by rotorod test; type: toxicity, organism-based; conditions: in vivo
Mus musculus [10] = test: Anticonvulsant activity in albino Swiss mouse measured after 30 mins by subcutaneous pentylenetetrazole seizure test; type: functional; conditions: sc, 0.5 h
[11] = Protective index, ratio of TD50 for acute neurotoxicity in albino Swiss mouse to ED50 for anticonvulsant activity in albino Swiss mouse by maximal electroshock seizure test; type: toxicity, organism-based; conditions: in vivo, read-out: Ratio TD50/ED50
Mus musculus [12] = species on record: Mus musculus; test: Anticonvulsant activity in albino Swiss mouse assessed as protection against electrically-induced seizure by 6Hz psychomotor seizure test; type: functional
Mus musculus [13] = species on record: Mus musculus; test: Anticonvulsant activity in albino Swiss mouse by maximal electroshock seizure test; type: functional
Mus musculus [14] = test: Anticonvulsant activity in albino Swiss mouse assessed as protection against maximal electroshock-induced seizures pretreated for 0.5 hrs at 100 mg/kg, ip by maximal electroshock seizure test; type: functional
[15] = Acute neurotoxicity in albino Swiss mouse pretreated for 2 hrs by rotorod test; type: toxicity, organism-based; conditions: in vivo
Rattus norvegicus [16] = species on record: Rattus norvegicus; test: Displacement of [3H]diltiazem from L-type calcium channel diltiazem binding site in rat cerebral cortex synaptoneurosomes at 200 uM measured after 120 mins by scintillation counting method; type: tissue-based
Rattus norvegicus [17] = species on record: Rattus norvegicus; test: Displacement of [3H]nitrendipine from L-type calcium channel dihydropyridine site in rat cerebral cortex synaptoneurosomes at 100 uM measured after 90 mins by scintillation counting method; type: tissue-based
Rattus norvegicus [18] = species on record: Rattus norvegicus; test: Displacement of [3H]nitrendipine from L-type calcium channel dihydropyridine site in rat cerebral cortex synaptoneurosomes at 200 uM measured after 90 mins by scintillation counting method; type: tissue-based
Rattus norvegicus [19] = species on record: Rattus norvegicus; test: Displacement of [125I]omega-Conotoxin GVIA from N-type calcium channel in rat cerebral cortex synaptoneurosomes at 200 uM measured after 30 mins by scintillation counting method; type: tissue-based
Rattus norvegicus [20] = species on record: Rattus norvegicus; test: Displacement of [125I]omega-Conotoxin GVIA from N-type calcium channel in rat cerebral cortex synaptoneurosomes at 100 uM measured after 30 mins by scintillation counting method; type: tissue-based
Rattus norvegicus [21] = species on record: Rattus norvegicus; test: Displacement of [3H]Batrachotoxinin from voltage-sensitive sodium channel site 2 in rat cerebral cortex synaptoneurosomes at 500 uM measured after 60 mins by scintillation counting method; type: tissue-based
Rattus norvegicus [22] = species on record: Rattus norvegicus; test: Displacement of [3H]D888 from L-type calcium channel verapamil binding site in rat cerebral cortex synaptoneurosomes at 100 uM measured after 120 mins by scintillation counting method; type: tissue-based
Rattus norvegicus [23] = species on record: Rattus norvegicus; test: Displacement of [3H]D888 from L-type calcium channel verapamil binding site in rat cerebral cortex synaptoneurosomes at 200 uM measured after 120 mins by scintillation counting method; type: tissue-based
Rattus norvegicus [24] = species on record: Rattus norvegicus; test: Displacement of [3H]diltiazem from L-type calcium channel diltiazem binding site in rat cerebral cortex synaptoneurosomes at 100 uM measured after 120 mins by scintillation counting method; type: tissue-based
Mus musculus [25] = test: Anticonvulsant activity in albino Swiss mouse assessed as protection against electrically-induced seizure pretreated for 2 hrs at 100 mg/kg, ip by 6Hz psychomotor seizure test; type: functional, organism-based
Rattus norvegicus [26] = species on record: Rattus norvegicus; test: Displacement of [3H]Batrachotoxinin from voltage-sensitive sodium channel site 2 in rat cerebral cortex synaptoneurosomes at 100 uM measured after 60 mins by scintillation counting method; type: tissue-based
Rattus norvegicus [27] = species on record: Rattus norvegicus; test: Displacement of [3H]Batrachotoxinin from voltage-sensitive sodium channel site 2 in rat cerebral cortex synaptoneurosomes at 200 uM measured after 60 mins by scintillation counting method; type: tissue-based

CC1CC(=O)N(C(C)C(=O)Nc2cccc(F)c2)C1=O (stereo not given)
Activity (Mus musculus [1]): inactive

CC1CC(=O)N(C(C)C(=O)Nc2cccc(Cl)c2)C1=O (stereo not given)
Activity (Mus musculus [2]): 75%
Activity (Mus musculus [3]): inactive
Activity (Mus musculus [4]): Non-toxic
Activity (Mus musculus [5]): 75%
selectivity ratio [6]: 3.2
selectivity ratio [7]: 4.8
Time (Mus musculus [8]): 0.5 h
Activity (Mus musculus [9]): Non-toxic
ED50 (Mus musculus [10]): 58.4 mg/kg
selectivity ratio [11]: 3.5
ED50 (Mus musculus [12]): 88.2 mg/kg
ED50 (Mus musculus [13]): 80.6 mg/kg
Activity (Mus musculus [14]): 75%
TD50 at 2 h [15]: 279 mg/kg

CC1CC(=O)N(C(C)C(=O)Nc2ccc(Cl)cc2)C1=O (stereo not given)
Activity (Mus musculus [1]): inactive

CCC(C(=O)Nc1ccc(C(F)(F)F)cc1)N1C(=O)CCC1=O (stereo not given)
Activity (Mus musculus [1]): inactive
Activity (Mus musculus [14]): inactive

CC1CC(=O)N(C(C)C(=O)Nc2cccc(C(F)(F)F)c2)C1=O (stereo not given)
Activity (Mus musculus [1]): inactive
Activity (Mus musculus [14]): inactive

CCCC(CCC)C(=O)O [VALPROIC ACID]
Time (Mus musculus [8]): 0.5 h

CCC1(C)CC(=O)NC1=O (stereo not given) [ETHOSUXIMIDE]
selectivity ratio [7]: 4.9
Time (Mus musculus [8]): 0.5 h
ED50 (Mus musculus [10]): 148 mg/kg
ED50 (Mus musculus [12]): > 200 mg/kg
ED50 (Mus musculus [13]): > 500 mg/kg

CC1CC(=O)N(C(C)C(=O)Nc2ccc(C(F)(F)F)cc2)C1=O (stereo not given)
Activity (Mus musculus [1]): inactive
Activity (Mus musculus [14]): inactive

NC(=O)N1c2ccccc2C=Cc2ccccc21
inhibition (Rattus norvegicus [16]): 7.3%
inhibition (Rattus norvegicus [17]): 2.6%
inhibition (Rattus norvegicus [18]): 3.6%
inhibition (Rattus norvegicus [19]): 1.9%
inhibition (Rattus norvegicus [20]): -2.9%
inhibition (Rattus norvegicus [21]): 33.6%
inhibition (Rattus norvegicus [22]): 8.8%
inhibition (Rattus norvegicus [23]): 7.5%
inhibition (Rattus norvegicus [24]): 1.1%

CCC(C(=O)Nc1cccc(Cl)c1)N1C(=O)CCC1=O (stereo not given)
Activity (Mus musculus [2]): 50%
Activity (Mus musculus [1]): inactive
Activity (Mus musculus [4]): Non-toxic
Activity (Mus musculus [5]): 75%
selectivity ratio [6]: > 11.5
Time (Mus musculus [8]): 0.5 h
ED50 (Mus musculus [10]): > 130 mg/kg
ED50 (Mus musculus [12]): 43.4 mg/kg
ED50 (Mus musculus [13]): > 130 mg/kg
Activity (Mus musculus [25]): inactive
Activity (Mus musculus [14]): 75%
TD50 at 2 h [15]: > 500 mg/kg

CC1CC(=O)N(C(C)C(=O)Nc2ccccc2)C1=O (stereo not given)
Activity (Mus musculus [1]): inactive

CC(C(=O)Nc1ccc(C(F)(F)F)cc1)N1C(=O)CCC1=O (stereo not given)
Activity (Mus musculus [1]): inactive

CC(C(=O)Nc1cccc(C(F)(F)F)c1)N1C(=O)CCC1=O (stereo not given)
Activity (Mus musculus [14]): inactive

CC(C(=O)Nc1ccc(F)cc1)N1C(=O)CCC1=O (stereo not given)
Activity (Mus musculus [1]): inactive
Activity (Mus musculus [14]): inactive

CC(C(=O)Nc1ccc(Cl)cc1)N1C(=O)CCC1=O (stereo not given)
Activity (Mus musculus [14]): inactive

CCC(C(=O)Nc1cccc(F)c1)N1C(=O)CCC1=O (stereo not given)
Activity (Mus musculus [1]): inactive
Activity (Mus musculus [4]): Non-toxic
Activity (Mus musculus [5]): Active
selectivity ratio [6]: 8.4
Time (Mus musculus [8]): 0.5 h
selectivity ratio [11]: 2.9
ED50 (Mus musculus [12]): 41.4 mg/kg
ED50 (Mus musculus [13]): 121 mg/kg
Activity (Mus musculus [25]): inactive
Activity (Mus musculus [14]): 75%
TD50 at 2 h [15]: 346 mg/kg

CCC(C(=O)Nc1ccc(F)cc1)N1C(=O)CCC1=O (stereo not given)
Activity (Mus musculus [1]): inactive
Activity (Mus musculus [14]): inactive

CCC(C(=O)Nc1ccccc1)N1C(=O)CCC1=O (stereo not given)
Activity (Mus musculus [2]): 75%
Activity (Mus musculus [3]): inactive
Activity (Mus musculus [4]): Non-toxic
Activity (Mus musculus [5]): Active
selectivity ratio [6]: 5.7
selectivity ratio [7]: 5.3
Time (Mus musculus [8]): 0.5 h
Activity (Mus musculus [9]): Non-toxic
ED50 (Mus musculus [10]): 75.4 mg/kg
selectivity ratio [11]: 3.4
ED50 (Mus musculus [12]): 69.3 mg/kg
ED50 (Mus musculus [13]): 116 mg/kg
Activity (Mus musculus [25]): inactive
Activity (Mus musculus [14]): 75%
TD50 at 2 h [15]: 398 mg/kg

CC(C(=O)Nc1cccc(Cl)c1)N1C(=O)CCC1=O (stereo not given)
Activity (Mus musculus [2]): 75%
Activity (Mus musculus [1]): inactive
Activity (Mus musculus [5]): 75%
selectivity ratio [6]: > 6.7
selectivity ratio [7]: > 5.7
Time (Mus musculus [8]): 0.5 h
Activity (Mus musculus [9]): 50%
ED50 (Mus musculus [10]): 87.7 mg/kg
selectivity ratio [11]: > 4.8
ED50 (Mus musculus [12]): 74.5 mg/kg
ED50 (Mus musculus [13]): 105 mg/kg
Activity (Mus musculus [25]): inactive
Activity (Mus musculus [14]): 75%
TD50 at 2 h [15]: > 500 mg/kg

CCC(C(=O)Nc1ccc(Cl)cc1)N1C(=O)CCC1=O (stereo not given)
Activity (Mus musculus [1]): inactive
Activity (Mus musculus [14]): inactive

CC(C(=O)Nc1cccc(F)c1)N1C(=O)CCC1=O (stereo not given)
Activity (Mus musculus [1]): inactive

CC(C(=O)Nc1ccccc1)N1C(=O)CCC1=O (racemic)
Activity (Mus musculus [2]): Active
inhibition (Rattus norvegicus [16]): 43.7%
Activity (Mus musculus [3]): inactive
inhibition (Rattus norvegicus [17]): -7.7%
inhibition (Rattus norvegicus [18]): 2.9%
Activity (Mus musculus [5]): Active
selectivity ratio [6]: 7.6
selectivity ratio [7]: 4.4
inhibition (Rattus norvegicus [26]): 26.4%
inhibition (Rattus norvegicus [19]): 1.3%
Time (Mus musculus [8]): 0.5 h
inhibition (Rattus norvegicus [20]): -6.5%
inhibition (Rattus norvegicus [27]): 55.2%
ED50 (Mus musculus [10]): 75.4 mg/kg
selectivity ratio [11]: 3.5
ED50 (Mus musculus [12]): 44.3 mg/kg
inhibition (Rattus norvegicus [22]): -0.8%
ED50 (Mus musculus [13]): 96.9 mg/kg
Activity (Mus musculus [14]): 50%
TD50 at 2 h [15]: 336 mg/kg
inhibition (Rattus norvegicus [23]): -3.2%
inhibition (Rattus norvegicus [24]): 10.8%

CC1CC(=O)N(C(C)C(=O)Nc2ccc(F)cc2)C1=O (stereo not given)
Activity (Mus musculus [1]): inactive
Activity (Mus musculus [14]): inactive

CC[C@@H](C(N)=O)N1CCCC1=O
Time (Mus musculus [8]): 1 h
ED50 (Mus musculus [10]): > 500 mg/kg
ED50 (Mus musculus [13]): > 500 mg/kg
TD50 at 2 h [15]: > 500 mg/kg

COC[C@@H](NC(C)=O)C(=O)NCc1ccccc1 [LACOSAMIDE]
selectivity ratio [6]: 5.3
Time (Mus musculus [8]): 0.5 h
ED50 (Mus musculus [10]): > 500 mg/kg
ED50 (Mus musculus [12]): 6.4 mg/kg
ED50 (Mus musculus [13]): 9.4 mg/kg

CCC(C(=O)Nc1cccc(C(F)(F)F)c1)N1C(=O)CCC1=O (stereo not given)
Activity (Mus musculus [1]): inactive
Activity (Mus musculus [14]): inactive
